Measured values taken from US9265808B2, “Compositions for alleviating inflammation and oxidative stress in a mammal” (priority 2004, dated 2016).
Like-named read-outs stand apart in the source and are kept apart here.

Experiments:
[1] = Blood pressure of human subjects; conditions: Subject #2, ATENOLOL 25 mg/day alone
Protocol: The approximate daily dosage of each of the components of the herb-containing composition was as follows: B. monnieri extract (200 mg), Milk Thistle extract 70-80% (300 mg), Ashwagandha powder (200 mg), Turmeric extract (95%) (100 mg), Gotu kola powder (200 mg), Aloe vera powder (200 mg), Green tea (98% Polyphenols 45% EGCG) (100 mg), and Ginko biloba leaf extract (200 mg).
The approximate daily dosage of each of the components of the herb-containing composition was as follows: B. monnieri extract (134 mg), Milk Thistle extract 70-80% (200 mg), Ashwagandha powder (134 mg), Turmeric extract (95%) (67 mg), Gotu kola powder (134 mg), Aloe vera powder (134 mg), Green tea (98% Polyphenols, 45% EGCG) (67 mg), and Ginko biloba leaf extract (134 mg).

HO-1 [2] = test: Protandim®-induced HO-1 protein in presence of signaling pathway inhibitors, SK-N-MC cells; type: cell-based, human; conditions: for decrease of Protandim®-mediated increase in HO-1 expression in presence of inhibitor: 20 μM SB203580 or 1 μM rottlerin 30 min
Protocol: To identify the signaling pathway(s) involved in HO-1 promoter induction by Protandim®, different pharmacological inhibitors that specifically block each of the following pathways were used: 5-(2-benzothiazolyl)-3-ethyl-2-[2-(methylphenylamino) ethenyl]-1-phenyl-1H-benzimidazolium iodide (Akt inhibitor IV) for Akt, LY294002 for PI3-kinase, SP600125 for JNK, U0126 for MEK/ERK, SB203580 for p38MAPK, and rottlerin for PKCδ. SK-N-MC cells were preincubated in the presence of 250 nM Akt inhibitor IV, 30 μM LY294002, 1 μM rottlerin, 10 μM U0126, 20 μM SB203580, or 20 μM SP600125 for 30 min followed by exposure to 20 μg/ml Protandim® for 24 h. Cell lysates were electrophoresed and immunoblotted for HO-1. The blots were then reprobed with the antibody for β-actin. […] The intensities of the bands were quantified by densitometry using Fluor-S MultiImager and Quantity One software from Bio-Rad. HO-1 levels were corrected for β-actin expression.

HO-1 promoter [3] = test: HO-1 promoter luciferase reporter assay in MIN6 cells; type: cell-based, mouse; conditions: concentration present in the maximum dose of Protandim® (40 μg/ml)
Protocol: (§1) The induction of HO-1 by Protandim® was tested by transient transfection of its promoter linked to the luciferase reporter gene in MIN6 cells, a mouse insulinoma cell line, and in SK-N-MC cells, a human neuroblastoma cell line, as reported in Velmurugan, K. et al., “Synergistic induction of heme oxygenase-1 by the components of the antioxidant supplement Protandim,” Free Radical Biology & Medicine, 46: 430-440 (2009), the entire disclosure of which is incorporated herein by reference.
(§2) The alcohol extract of Protandim® was prepared by shaking 675 mg of Protandim with 16.875 ml of 95% ethanol overnight at 4° C. and centrifuging at 5000 rpm (4° C.) for 5 min, and the extract (40 mg/ml) was stored at −80° C. For studies on synergy, the individual components present in 675 mg of Protandim® were extracted in the same volume of alcohol by a similar procedure. Parallel preparations of Protandim® extracts were also prepared with one of the components omitted. […] Controls were treated with the same volume of alcohol used in the treated groups. […]
(§3) After freezing and thawing, the lysates were centrifuged (10,600 g; 20 min) to collect the supernatant. Firefly luciferase and Renilla luciferase activities from transfected cells were measured using the Dual-Glo Luciferase Assay System (Promega). […]

HO-1 promoter [4] = test: HO-1 promoter luciferase reporter assay in SK-N-MC cells; type: cell-based, human; conditions: concentration present in the maximum dose of Protandim® (20 μg/ml)
Protocol: as §1, §2, §3

HO-1 [5] = test: HO-1 protein by Western blot in MIN6 cells; type: cell-based, mouse; conditions: ethanolic extracts at maximum doses of Table 10 (Protandim® 40 μg/ml)
Excerpt: (§4) After treatment with Protandim® extracts, MIN6 and SK-N-MC cells were washed with ice-cold PBS. Cells were lysed with mammalian protein extraction reagent (Pierce, Rockford, Ill., USA) containing phosphatase inhibitors and protease inhibitor cocktail. […] Diluted samples containing equal amounts of protein were mixed with 2× Laemmli sample buffer and subjected to electrophoresis on 12% SDS-polyacrylamide gels. After transfer to polyvinylidene difluoride membranes, the membranes were blocked with TBST [20 mM Tris-HCl (pH 7.9), 8.5% NaCl, and 0.1% Tween 20] containing 5% nonfat dry milk at room temperature for 1 h and exposed to primary antibodies (1:1000) in TBST containing 5.0% BSA at 4° C. overnight. After being washed in blocking solution, the membranes were exposed to secondary antibodies conjugated to alkaline phosphatase and developed with CDP-Star reagent (New England Biolabs, Beverly, Mass., USA). The intensity of the protein bands was visualized using Fluor-S Multi-Imager and Quantity One software from Bio-Rad. […]
(§5) Cell lysates were processed for Western blot analysis of HO-1, and the blots reprobed for β-actin. The intensities of bands were quantitated by scanning in a MultiImager using Quantity One software (Bio-Rad), and HO-1 expression was corrected for β-actin levels.

HO-1 [6] = test: HO-1 protein by Western blot in SK-N-MC cells; type: cell-based, human; conditions: ethanolic extracts at maximum doses of Table 10 (Protandim® 20 μg/ml)
Excerpt: as §4, §5

[7] = pH of 1.0; cited from earlier work
Nrf2 = test: AREc32 bioassay for Nrf2 activation
Excerpt: The assay for Nrf2 activation is based on the AREc32 cell line, developed by Dr. C. R. Wolf and colleagues of the University of Dundee, Scotland, as described in Wang, X. J. et al., “Generation of a stable antioxidant response element-driven reporter gene cell line and its use to show redoxdependent activation of Nrf2 by cancer chemotherapeutic agents,” Cancer Res. 66, 10983-10994 (2006); Hybertson, B. M. et al., “Oxidative stress in health and disease: the therapeutic potential of Nrf2 activation,” Molecular Aspects of Medicine, 32: 234-246 (2011), the entire disclosure of each of which is incorporated herein by reference. The AREc32 cell line is a stable transfectant derived from the MCF7 human breast cancer cell line. It contains a promoter with eight copies of the rat glutathione-S-transferase-A2 Antioxidant Response Element (ARE) and the SV40 promoter sequence upstream of a firefly luciferase reporter gene.
Briefly, AREc32 cells were grown in Opti-MEM (GIBCO, Carlsbad, Calif.) supplemented with 4% fetal bovine serum (FBS, GIBCO) and 1% Antibiotic-Antimycotic (GIBCO) at 37° C. and in a 10% CO 2-supplemented air atmosphere. The cells were seeded at 1% to 5% of confluent cell density in T75 tissue culture flasks and cultivated until they approached confluence. The medium was aspirated off and the adherent cells trypsinized with 1 ml of 1× Trypsin-EDTA solution (GIBCO) for 10 min. Ten milliliters of medium was added to the flask and the cells transferred to a 50 ml centrifuge tube and centrifuged at 1000 rpm for 5 min at room temperature. Cells were washed once with 10 ml of medium, then resuspended in 10 ml of medium. Cells were counted using a hemocytometer and diluted to a concentration of 50,000 cells/ml. Four hundred microliters of this cell suspension was seeded into each well of a 24-well plate (i.e. 20,000 cells/well). Seeded plates were then returned to the incubator for 24 h.
After 18-24 h the cells were reattached and growing, and ready for treatment with samples with putative Nrf2 activating activity. […] Vehicles used were aqueous or organic solvents such as ethanol or DMSO, and appropriate vehicle controls were included. The cells were then returned to the incubator for 18 h. All operations up to this point must be conducted under sterile conditions.
After 24 h the cells were checked under the microscope for any abnormalities or detachment. The medium was aspirated and the cells were washed with phosphate buffered saline, pH 7.4 (100 μl/well). Following aspiration of the wash solution, the cells were lysed by application of 0.1 M potassium phosphate buffer, pH 7.8, containing 1% Triton X-100, 2 mM dithiothreitol, 2 mM EDTA, 10% glycerol and 3.5 mM sodium pyrophosphate (100 μl/well). The plate was incubated at 4° C. for 20 min. Lysate (20 μl from each well in a new 12×75 mm glass test tube) was assayed for luciferase activity using a Monolight 3010 autoinject luminometer (Analytical Luminescence Laboratory, Ann Arbor, Mich.), automatically injecting 50 of Luciferase Assay Buffer after background measurement. Luciferase Assay Buffer was prepared by mixing 9 ml of Solution A (15 mM Tricine, pH 7.8, containing 1.5 mM ATP, 7.5 mM MgSO 4, and 5 mM dithiothreitol) with 1 ml of Solution B 10 mM D-luciferin). After a 4 delay following injection, luminescence was measured for 10 s. Relative Light Units (RLU) were recorded for the contents of each well. Fold Induction (FI) of luciferase activity was calculated by dividing the RLU obtained for the test well by the average RLU obtained for control wells (which received no putative Nrf2 activator). Each assay or control was performed in duplicate. Parameters noted were the concentration of test substance providing maximal fold induction of luciferase (Cmax), and the maximal fold induction observed (FImax).
The AREc32 cells were prepared as in Example 7. After 18-24 h the cells were reattached and growing, and ready for treatment with samples with putative Nrf2 activating activity. […]

[8] = SK-N-MC, 250 nM Akt inhibitor IV, 30 μM LY294002, 10 μM U0126, 20 μM SP600125, 30 min, then 20 μg/ml Protandim® 24 h
[9] = SK-N-MC, then 20 μg/ml Protandim® 24 h
[10] = AREc32 cells, biphasic induction

Q: For CC(C)NCC(O)COc1ccc(CC(N)=O)cc1 (stereo not shown) [ATENOLOL], which lowest diastolic measurement [1] is on record?
A: 91

Q: With CC[n+]1c(/C=C/N(C)c2ccccc2)n(-c2ccccc2)c2ccc(-c3nc4ccccc4s3)cc21 [Akt inhibitor IV, 5-(2-benzothiazolyl)-3-ethyl-2-[2-(methylphenylamino)ethenyl]-1-phenyl-1H-benzimidazolium iodide] as the compound, how does the “effect of inhibitor on Protandim®-induced increase in HO-1 protein levels” value (HO-1 [2]; [8]) read?
A: significant (p<0.001) decrease

Q: For COc1cc(/C=C/C(=O)CC(=O)/C=C/c2ccc(O)c(OC)c2)ccc1O [Curcumin], which “HO-1 promoter induction by individual ingredient” value (HO-1 promoter [3]) is on record?
A: 36%

Q: What about the “HO-1 promoter induction by individual ingredient” value (HO-1 promoter [4]) of the same compound?
A: 300%

Q: What about the “increase of HO-1 protein level” value (HO-1 [5]) of the same compound?
A: 6 fold

Q: What about the “increase of HO-1 protein level” value (HO-1 [6]) of the same compound?
A: 6 fold

Q: With N[C@@H](CCC(=O)N[C@@H](CS)C(=O)NCC(=O)O)C(=O)O [GSH, L-γ-glutamyl-L-cysteinyl-glycine] as the compound, how does the “rate constant K2 against the hydroxyl radical” value [7] read?
A: 8.8×10^9

Q: With CC(=O)N[C@@H](CS)C(=O)O [NAC, N-Acetyl Cysteine] as the compound, how does the rate constant K2 against the hydroxyl radical [7] read?
A: 1.36e+10 M⁻¹ s⁻¹

Q: With C[S+]([O-])c1ccc(-c2nc(-c3ccncc3)c(-c3ccc(F)cc3)[nH]2)cc1 (stereo not shown) [SB203580] as the compound, how does the “decrease of Protandim®-mediated increase in HO-1 expression in presence of inhibitor” value (HO-1 [2]; [9]) read?
A: 50%

Q: For Oc1c2ccccc2c2c3c(cccc13)N=N2 [SP600125], which “effect of inhibitor on Protandim®-induced increase in HO-1 protein levels” value (HO-1 [2]; [8]) is on record?
A: No significant effect

Q: With N#CC(=C(/N)Sc1ccccc1N)/C(C#N)=C(\N)Sc1ccccc1N [U0126] as the compound, how does the “effect of inhibitor on Protandim®-induced increase in HO-1 protein levels” value (HO-1 [2]) read?
A: No significant effect

Q: With CC1=C(CO)C(=O)O[C@@H]([C@@H](C)[C@H]2CC[C@H]3[C@@H]4C[C@H]5O[C@]56[C@@H](O)C=CC(=O)[C@]6(C)[C@H]4CC[C@]23C)C1 [Withaferin A] as the compound, how does the “concentration providing maximal fold induction of luciferase (Cmax)” value (Nrf2; AREc32 cells, 18 h) read?
A: 2100 nM

Q: What about the “concentration providing maximal fold induction of luciferase (Cmax)” value (Nrf2; AREc32 cells, 18 h, ethanolic extract) of the same compound?
A: 1000 ng/mL

Q: What does the source list for COC(=O)[C@]12CCC(C)(C)C[C@H]1[C@H]1C(=O)C=C3[C@@]4(C)C=C(C#N)C(=O)C(C)(C)[C@@H]4CC[C@@]3(C)[C@]1(C)CC2 [bardoxolone methyl]?
A: maximal fold induction observed (FImax) (Nrf2): 67 fold; lower end of concentration range producing near maximal FI (Nrf2; [10]): less than 40 nM; upper end of concentration range producing near maximal FI (Nrf2; [10]): 0.4 µM

Q: Which “decrease of Protandim®-mediated increase in HO-1 expression in presence of inhibitor” value (HO-1 [2]; [9]) does the source give for CC(=O)c1c(O)c(C)c(O)c(Cc2c(O)c3c(c(C(=O)/C=C/c4ccccc4)c2O)OC(C)(C)C=C3)c1O [rottlerin] here?
A: 50%

Q: For C[S+]([O-])CCCCN=C=S (stereo not shown) [sulforaphane], which “maximal fold induction observed (FImax)” value (Nrf2; human, 18 h) is on record?
A: 21 fold

Q: With CC(C)(C)c1cc(O)ccc1O [tert-butyl-hydroquinone] as the compound, how does the “increase of luciferase activity” value (Nrf2; AREc32 cells, 50 μmol/L) read?
A: up to 50 fold
